Data published in patent publication US20070213396A1, “Active Substance Combinations Having Insecticidal Properties” (BAYER CROPSCIENCE AG, priority 2004, published 2007).
Several values for one entry are separate records, joined by “and”; a condition that tells them apart may be missing. Equal values may be shown once.

Legend:
Assay type in all cases: in vivo
Details in all cases: single active compound
[1] = system: caterpillars of the cotton bollworm (Heliothis armigera); assay: Heliothis armigera test (cabbage leaf dip)
Source text: (§1) The expected action for a given combination of two active compounds can be calculated as follows, according to S. R. Colby, Weeds 15 (1967), 20-22: • If • X is the kill rate, expressed as a percentage of the untreated control, when employing active compound A at an application rate of m g/ha or in a concentration of m ppm, • Y is the kill rate, expressed as a percentage of the untreated control, when employing active compound B at an application rate of n g/ha or in a concentration of n ppm and • E is the kill rate, expressed as a percentage of the untreated control, when employing active compounds A and B at application rates of m and n g/ha or in a concentration of m and n ppm, • then [formula] If the actual insecticidal kill rate exceeds the calculated value, the kill of the combination is superadditive, i.e. a synergistic effect is present. In this case, the actually observed kill rate must exceed the value calculated using the above formula for the expected kill rate (E).
(§2) To produce a suitable preparation of active compound, 1 part by weight of active compound is mixed with the stated amounts of solvent and emulsifier, and the concentrate is diluted with emulsifier-containing water to the desired concentration.
Cabbage leaves (Brassica oleracea) are treated by being dipped into the preparation of active compound of the desired concentration and are populated with caterpillars of the cotton bollworm (Heliothis armigera) while the leaves are still moist.
(§3) After the desired period of time, the kill in % is determined. 100% means that all caterpillars have been killed; 0% means that none of the caterpillars have been killed. The determined kill rates are entered into Colby's formula (see sheet 1).

[2] = system: Phaedon cochleariae larvae; assay: Phaedon cochleariae larvae test (cabbage leaf dip)
Source text: as §1
phaedon cochlearise Larvae Teast
as §2
Cabbage leaves (Brassica oleracea) are treated by being dipped into the preparation of active compound of the desired concentration and are populated with […] (Phaedon cochleariae) while the leaves are still moist.
as §3

[3] = system: caterpillars of the beet armyworm (Spodoptera exigua); assay: Spodoptera exigua test (cabbage leaf dip)
Source text: as §1
The produce a suitable preparation of active compound, 1 part by weight of active compound is mixed with the stated amounds of solvent and emulsifier, and the concentrate is diluted with emulsifier-containing water to the desired concentration. […]
After the desired period of time, the kill in % is determined. […] The determined kill rates are entered into Colby's formula (see sheet 1)

## CC1(C)[C@H](C(=O)O[C@H](C#N)c2cccc(Oc3ccccc3)c2)[C@@H]1C=C(Br)Br [deltamethrin]
[1]; 0.032 ppm
  Kill in % after 3 d: 10%
[2]; 0.16 ppm
  Kill in % after 6 d: 50%

## CC1(C)C(C=C(Cl)Cl)C1C(=O)OCc1cccc(Oc2ccccc2)c1 (stereo not drawn) [permethrin]
[3]; 0.16 ppm
  Kill in % after 6 d: 0%
[1]; 0.16 ppm
  Kill in % after 6 d: 15%

## O=C(NC(=O)c1ccccc1Cl)Nc1ccc(OC(F)(F)F)cc1 [triflumuron]
[3]; 4 ppm
  Kill in % after 6 d: 20%
[1]; 0.8 ppm
  Kill in % after 3 d: 0%
[1]; 4 ppm
  Kill in % after 6 d: 0%
[2]; 4 ppm
  Kill in % after 3 d: 25% and 35%
  Kill in % after 6 d: 65%

## CC1(C)C(C=C(Cl)Cl)C1C(=O)OC(C#N)c1ccc(F)c(Oc2ccccc2)c1 (stereo not drawn) [β-cyfluthrin]
[1]; 0.16 ppm
  Kill in % after 6 d: 65%
[2]; 0.16 ppm
  Kill in % after 3 d: 15%

## CC1(C)C(/C=C(\Cl)C(F)(F)F)C1C(=O)OC(C#N)c1cccc(Oc2ccccc2)c1 (stereo not drawn) [lambda-cyhalothrin]
[2]; 0.16 ppm
  Kill in % after 3 d: 15%
